# Literature values as cited in US20240091148A1, “EUTECTIC SOLVENTS COMPRISING PHARMACEUTICAL AGENTS, AND METHODS OF MAKING AND USE THEREOF” (Novilla Pharmaceuticals, Inc., priority 2018, published 2024).
# Conditions: values stated in the description, no method or source given
row,pKa,SMILES
1,13-16,C[C@H]1C[C@H]2[C@@H]3CCC4=CC(=O)C=C[C@]4(C)[C@@]3(Cl)[C@@H](O)C[C@]2(C)[C@@]1(O)C(=O)CO [beclomethasone]
2,13-15,CCCC1O[C@@H]2C[C@H]3[C@@H]4CCC5=CC(=O)C=C[C@]5(C)[C@H]4[C@@H](O)C[C@]3(C)[C@]2(C(=O)CO)O1 (stereo partly drawn) [budesonide]
3,14-16,CC(C)C(=O)OCC(=O)[C@@]12O[C@H](C3CCCCC3)O[C@@H]1C[C@H]1[C@@H]3CCC4=CC(=O)C=C[C@]4(C)[C@H]3[C@@H](O)C[C@@]12C [ciclesonide]
4,8.7-9.2,CN(C)CCOC(C)(c1ccccc1)c1ccccn1 (stereo not drawn) [doxylamine]
5,12-14,C[C@@H]1C[C@H]2[C@@H]3C[C@H](F)C4=CC(=O)C=C[C@]4(C)[C@@]3(F)[C@@H](O)C[C@]2(C)[C@@]1(O)C(=O)SCF [fluticasone]
6,12-13,C[C@@H]1C[C@H]2[C@@H]3CCC4=CC(=O)C=C[C@]4(C)[C@@]3(Cl)[C@@H](O)C[C@]2(C)[C@@]1(O)C(=O)CCl [mometasone]
